Test system: Mycobacterium tuberculosis variant bovis
Experiment: Antibacterial activity against Mycobacterium bovis BCG ATCC 35743 constitutive expressing GFP assessed as bacterial growth inhibition at 20 uM by CLSI protocol based broth microdilution method
Format: functional
Details: read-out: GI

First: C=C[C@]1(C)C[C@@H](OC(=O)CO)[C@@]2(C)C3=CC(=O)C[C@@]3(CC[C@H]2C)[C@@H](C)[C@@H]1O
Second: C=C[C@]1(C)C[C@@H](OC(C)=O)[C@@]2(C)C3=CC(=O)C[C@@]3([C@H](O)C[C@H]2C)[C@@H](C)[C@@H]1O
The inhibition of growth at 20 µM of the first is higher: 62% for the first, 34% for the second.

Going from `C=C[C@]1(C)C[C@@H](O)[C@@]2(C)C3C(=O)CC[C@@]3(CC[C@H]2C)[C@@H](C)[C@@H]1O` (some centres undefined) to `C=C[C@]1(C)C[C@@H](OC(=O)CO)[C@@]2(C)C3C(=O)CC[C@@]3(CC[C@H]2C)[C@@H](C)[C@@H]1O` (some centres undefined), the inhibition of growth at 20 µM rises from 48% to 50%.

First: C[C@@H]1CC[C@@]23CCC(=O)C2[C@]1(C)[C@H](OC(=O)CO)C[C@@](C)([C@H](O)CO)[C@@H](O)[C@@H]3C (some centres undefined)
Second: C=C[C@]1(C)C[C@@H](OC(=O)CO)[C@@]2(C)C3C(=O)[C@H](O)CC3(CC[C@H]2C)[C@@H](C)[C@@H]1O (single isomer, unassigned)
The inhibition of growth at 20 µM of the first is lower: 20% for the first, 34% for the second.

Going from `C=C[C@]1(C)C[C@@H](O)[C@@]2(C)C3[C@H](O)CC[C@@]3(CC[C@H]2C)[C@@H](C)[C@@H]1O` (some centres undefined) to `C=C[C@]1(C)C[C@@H](OC(C)=O)[C@@]2(C)C3[C@H](O)CC[C@@]3(CC[C@H]2C)[C@@H](C)[C@@H]1O` (some centres undefined), the inhibition of growth at 20 µM rises from 36% to 43%.

Compound `C=C[C@]1(C)C[C@@H](O)[C@@]2(C)C3CCC[C@@]3(CC[C@H]2C)[C@@H](C)C1` (some centres undefined) has an inhibition of growth at 20 µM of 24%.

Source: ChEMBL document CHEMBL5352418, “Molecular networking assisted discovery and combinatorial biosynthesis of new antimicrobial pleuromutilins” (Eur J Med Chem, 2022)
